Where no end group is shown, it is not given here.
Experiments:
[1] = tested on: Zucker fa/fa rats; assay: conditioned taste aversion; type: in vivo, rat; conditions: test days 4, 7, 11, 14 versus control; lithium chloride 75 mg/kg i.p.; S38151 20 nmol/kg i.c.v.; n = 10-11
[2] = tested on: Wistar rats; assay: NEI-MCH-induced food intake after acute i.c.v. injection; type: in vivo, rat; conditions: NEI-MCH alone or any combination of NEI-MCH and S38151, i.c.v.
Description: Wistar and Zucker fa/fa rats were anesthetized with Forène (Abbott Laboratories, Queenborough, UK), and a stainless steel guide cannula (Plastic Products Co, Roanoke, Va, USA) was stereotaxically implanted into the right lateral ventricle at the following coordinates relative to the bregma: AP −0.8 mm, L = −1.2 mm, and V = −3.5 mm. After a 7-day recovery period, during which the animals were handled each day to minimize non-specific stress, they were lightly anesthetized with Forène. Human/mouse/rat MCH (1 μg in a volume of 2.5 μ L, Bachem, Voisins-le-Bretonneux, France) or an equivalent volume of artificial cerebrospinal fluid (CSF) was then injected through the intraventricular cannula. Immediately after injection, the animals quickly recovered and were returned to their home cages. Only those animals responding within 2 h with a robust increase in food intake, indicating correct cannula placement, were used in the experiments described below. Two days after MCH injection, the rats were randomly assigned to different groups and studied in one of the following protocols.
Wistar rats were habituated for at least 2 weeks before experiment to a diet of food pellets (6 mm diameter) of the following composition: 67.5% food flour, 26.5% sucrose, 5% gum tragacanth, and 1.25% magnesium stearate (A03 UAR, Orge, France). The food pellets were present in a metal food hopper attached to the inside of each cage. At 09:00 on the day of study, the animals were lightly anesthetized with Forene® (Abbott, France). Thereafter, rats were injected intra-cerebroventricular (i.c.v.) with vehicle (artificial CSF) or with S38151 [0.5, 5, 10, 20, 30, or 50 nmol/kg ([…], 14, 28, 42, or 70 μg/kg, respectively)] in a volume of 2.5 μL, 20 min prior to the injection of human/rat NEI-MCH [5 nmol/kg (18.7 μg/kg) in a volume of 2.5 μL].
Food intake was measured at different times after peptide injection. Food spillage was carefully quantified during each time period, and intake measurements were corrected for this loss. At the end of the experiments, the animals were euthanized and the positions of the cannulae were assessed by the injection of 100 μ L Evans blue dye (2 mg/mL) followed by the visual examination of brain slices. Only data obtained from animals with correctly positioned cannulae were included in the final data analysis.
Figure 3 The effect of S38151 on NEI-MCH-induced food intake in Wistar rats after acute central administration. Satiated rats were injected (i.c.v.) at the beginning of the light phase with 5 μg NEI-MCH, 5 μg NEI-MCH + differing doses of S38151 (0.5–50 nmol/kg), or an equivalent volume of artificial cereblospinal fluid vehicle (5 μL). Cumulative food intake was measured at 1, 2, 4, 6, and 24 h post-injection.

[3] = tested on: ob/ob mice; assay: daily i.c.v. MCH, food intake and body weight in obese mice; type: in vivo; conditions: MCH 5 μg/mouse/day i.c.v. for 5 days, n = 10
Procedure: (§1) For the MCH daily repeated i.c.v. injection studies, 13-week-old female C57BL/6J and ob/ob mice were used (Harlan, Gannat, France).
(§2) Figure 7 The effect of repeated daily central administration of MCH to lean (C57BL/6J) and obese (ob/ob) mice. C57BL/6J (A and B) and ob/ob (C and D) mice were administered MCH (5 μg/mouse/day) or artificial cerebrospinal fluid vehicle through i.c.v. injections for 5 consecutive days. Results are expressed as mean ± SEM (n = 10 mice per group). […] TEXT PRINTED IN THE PICTURE: (A) MCH: Food Intake/24h (g), C57BL/6J: Δ = 1.3 g | (B) MCH: Δ Body Weight (g), C57BL/6J: Δ = 1.3 g | (C) MCH: Food Intake/24h (g), ob/ob: Δ = 3.2 g | (D) MCH: Δ Body Weight (g), ob/ob: Δ = 2.1 g DOUBTS OF THE COPYIST ABOUT THIS PICTURE: The Δ values are printed beside the curve pairs with no substance label; I assigned them to MCH, reading them as the MCH versus Control difference.

[4] = tested on: C57BL/6J mice; assay: daily i.c.v. MCH, food intake and body weight in lean mice; type: in vivo, mouse; conditions: n = 10
Procedure: as §1, §2

[5] = tested on: Zucker fa/fa rats; conditions: cyclophosphamide 100 mg/kg i.p., S38151 20 nmol/kg (28 μg/kg) i.c.v., n = 8
Procedure: These experiments were performed with modifications to previously described methods (Madden et al., [1999]). Rats were individually housed in wire-bottomed plastic cages with free access to both food pellets (6 mm diameter A03 UAR) and kaolin powder. The food pellets were presented in a small porcelain bowl on the floor of the cage. The kaolin powder was presented in a metal feeding dish attached to the inside of the cage. After a 2-week habituation period to these conditions, the animals were randomized into five treatment groups based on the quantity of food eaten during the stabilization period. In addition, those rats that consistently spilled the kaolin powder were eliminated from the study. One day after randomization, the animals were injected just before the beginning of the dark phase with either cyclophosphamide (100 mg/kg, i.p.), or S38151 [20 nmol/kg (28 μg/kg) i.c.v.] or vehicle [(artificial CSF) i.c.v.]. After injection, the quantity of kaolin and food ingested during the following 24-h period was determined. Food or kaolin spilled by the animals was collected at the end of the experiment, and total food and kaolin intake measurements were corrected for this loss.
Figure 5 The effects of S38151 on conditioned taste aversion and pica in Zucker fa/fa rats. (A) In the conditioned taste aversion test, after a period of habituation of the animals to the experimental protocol, Zucker fa/fa rats were presented with 0.2% saccharine for 20 min after drinking water was removed from their cages for 18 h (test day 0). Animals were then injected (i.p.) with vehicle or lithium chloride, or with S38151 (20 nmol/kg, i.c.v). On test days 4, 7, 11, and 14, rats were presented with 0.2% saccharine, and the quantity consumed during a 20-min period was determined. Results are expressed as mean ± SEM (n = 10–11 rats per group). […] (B) In the pica test, Zucker fa/fa rats were injected (i.c.v.) with 20 nmol/kg S38151, or an equivalent volume of artificial cerebrospinal fluid vehicle. Food and kaolin intake during the following 24-h period were each measured. Results are expressed as mean ± SEM (n = 8 rats per group).

[Cl-].[Li+] [lithium chloride, reference compound]
0.2% saccharine consumption [1]: significant reduction

NEI-MCH: stable precursor of melanin-concentrating hormone, human/rat NEI-MCH (EIGDEENSAKFPIGRRDFDMLRCMLGRVYRPCWQV; ends and bridges not checked; cysteine pairing not given here; UniProt P20382 131-165, looked up, fragment) [reference compound]
food intake during the entire 24-h period versus control group [2]: not significantly altered

Melanin-concentrating hormone [MCH]
Δ body weight vs. controls, after 5 days [3]: +2.1 g | Δ food intake vs. controls, day 5 [3]: +3.2 g | Δ food intake vs. controls, day 5 ([4]; MCH 5 μg/mouse/day (100 nmol/kg/day) i.c.v. for 5 days): +1.3 g | Δ body weight vs. controls, day 5 ([4]; MCH 5 μg/mouse/day i.c.v. for 5 days): +1.3 g

O=P1(N(CCCl)CCCl)NCCCO1 (centres unmarked) [Cyclophosphamide, cyclophosphamide, reference compound]
kaolin intake, 24 h, pica test ([5]; vehicle 0.05 ± 0.01 g): significant increase | food intake, 24 h, pica test ([5]; vehicle 27 ± 1 g): nearly complete suppression

From article PMC3527734, “Peripheral injections of melanin-concentrating hormone receptor 1 antagonist S38151 decrease food intake and body weight in rodent obesity models” (Frontiers in Endocrinology, 2012)
